Results taken from patent US20230398130A1, “METHODS AND COMPOSITIONS FOR DIFFERENTIATING STEM CELLS” (Massachusetts Institute of Technology, priority 2020, published 2023).
Structures can show the parent of a compound that is named as a salt.

Tests used:
ISC-enriched organoids [1] = test: Primary screen, 384-well 2.5-D organoid differentiation (ENR+CD, 6 days): basal lysozyme secretion (LYZ.NS); assay type: cell-based, murine; settings: for Dose.FC.LYZ.NS (log 2 fold change) / Dose.FC.LYZ.NS (log 2 fold change, basal lysozyme secretion): vs plate median; for Dose.FC.LYZ.NS: ENR+CD, 6 days, FC vs plate median; for Z.LYZ.NS: standard z score of FC
Excerpt: (§1) High-throughput screening.

ISC-enriched organoids [2] = test: Primary screen, 384-well 2.5-D organoid differentiation (ENR+CD, 6 days): carbachol-induced lysozyme secretion (LYZ.S); assay type: cell-based, murine; settings: for Dose.FC.LYZ.S (log 2 fold change): primary screen; for Dose.FC.LYZ.S (log 2 fold change) / Dose.FC.LYZ.S (log 2 fold change, carbachol-induced lysozyme secretion): vs plate median; for Dose.FC.LYZ.S: ENR+CD, 6 days, FC vs plate median
Excerpt: as §1

ISC-enriched organoids [3] = test: Primary screen, 384-well 2.5-D organoid differentiation (ENR+CD, 6 days, Target Selective Inhibitor Library, vs whole-plate median): ATP (CellTiter-Glo 3D, CTG); settings: for Dose.FC.CTG (log 2 fold change) / Dose.FC.CTG (log 2 fold change, ATP): vs plate median; for Dose.FC.CTG: ENR+CD, 6 days, FC vs plate median; for Z.CTG: standard z score of FC

SMILES | Z.LYZ.NS (standard z score) (ISC-enriched organoids [1]; Dose 0.08 uM, primary screen) | Dose.FC.LYZ.NS (log 2 fold change) (ISC-enriched organoids [1]; Dose 0.08 uM, primary screen) | Z.LYZ.NS (standard z score) (ISC-enriched organoids [1]; Dose 0.40 uM, primary screen) | Dose.FC.LYZ.NS (log 2 fold change) (ISC-enriched organoids [1]; Dose 0.40 uM, primary screen) | Z.LYZ.NS (standard z score) (ISC-enriched organoids [1]; Dose 2.00 uM, primary screen) | Dose.FC.LYZ.NS (log 2 fold change) (ISC-enriched organoids [1]; Dose 2.00 uM, primary screen) | Dose.FC.LYZ.S (log 2 fold change) (ISC-enriched organoids [2]; Dose 0.08 uM) | Dose.FC.LYZ.S (log 2 fold change) (ISC-enriched organoids [2]; Dose 0.40 uM) | Dose.FC.LYZ.S (log 2 fold change) (ISC-enriched organoids [2]; Dose 2.00 uM) | Z.CTG (standard z score) (ISC-enriched organoids [3]; Dose 0.08 uM, primary screen) | Dose.FC.CTG (log 2 fold change) (ISC-enriched organoids [3]; Dose 0.08 uM, primary screen) | Z.CTG (standard z score) (ISC-enriched organoids [3]; Dose 0.40 uM, primary screen) | Dose.FC.CTG (log 2 fold change) (ISC-enriched organoids [3]; Dose 0.40 uM, primary screen) | Z.CTG (standard z score) (ISC-enriched organoids [3]; Dose 2.00 uM, primary screen) | Dose.FC.CTG (log 2 fold change) (ISC-enriched organoids [3]; Dose 2.00 uM, primary screen) | Z.LYZ.NS (standard z score) (ISC-enriched organoids [1]; dose 10.00 uM) | Dose.FC.LYZ.NS (log 2 fold change, basal lysozyme secretion) (ISC-enriched organoids [1]; dose 10.00 uM) | Dose.FC.LYZ.S (log 2 fold change, carbachol-induced lysozyme secretion) (ISC-enriched organoids [2]; dose 10.00 uM) | Z.CTG (standard z score) (ISC-enriched organoids [3]; dose 10.00 uM) | Dose.FC.CTG (log 2 fold change, ATP) (ISC-enriched organoids [3]; dose 10.00 uM) | other results
Cc1ccc(C(=O)N(CCCN)[C@@H](c2oc3cc(Cl)ccc3c(=O)c2Cc2ccccc2)C(C)C)cc1 [SB743921] | −2.017 | −0.232 | −2.148 | −0.247 | −2.297 | −0.264 | −0.321 | −0.329 | −0.340 | −1.159 | −0.485 | −1.855 | −0.777 | −1.158 | −0.485 |  |  |  |  |  | Z.LYZ.NS (standard z score) (ISC-enriched organoids [1]; Dose 10.00 uM, primary screen): −2.068; Dose.FC.LYZ.NS (log 2 fold change) (ISC-enriched organoids [1]; Dose 10.00 uM, primary screen): −0.238; Dose.FC.LYZ.S (log 2 fold change) (ISC-enriched organoids [2]; Dose 10.00 uM): −0.350; Z.CTG (standard z score) (ISC-enriched organoids [3]; Dose 10.00 uM, primary screen): −1.294; Dose.FC.CTG (log 2 fold change) (ISC-enriched organoids [3]; Dose 10.00 uM, primary screen): −0.542
O=C(O[C@H]1C[C@H]2CC[C@@H](C1)[N+]21CCCC1)C(O)(c1ccccc1)c1ccccc1 [Trospium chloride] |  |  |  |  |  |  |  |  |  |  |  |  |  |  |  | 0.885 | 0.102 | 0.084 | 0.354 | 0.148 | Z.LYZ.NS (standard z score) (ISC-enriched organoids [1]; dose 0.08 uM): 1.470; Dose.FC.LYZ.NS (log 2 fold change, basal lysozyme secretion) (ISC-enriched organoids [1]; dose 0.08 uM): 0.169; Z.LYZ.NS (standard z score) (ISC-enriched organoids [1]; dose 0.40 uM): 1.895; Dose.FC.LYZ.NS (log 2 fold change, basal lysozyme secretion) (ISC-enriched organoids [1]; dose 0.40 uM): 0.218; Z.LYZ.NS (standard z score) (ISC-enriched organoids [1]; dose 2.00 uM): −0.017; Dose.FC.LYZ.NS (log 2 fold change, basal lysozyme secretion) (ISC-enriched organoids [1]; dose 2.00 uM): −0.002; Dose.FC.LYZ.S (log 2 fold change, carbachol-induced lysozyme secretion) (ISC-enriched organoids [2]; dose 0.08 uM): 0.119; Dose.FC.LYZ.S (log 2 fold change, carbachol-induced lysozyme secretion) (ISC-enriched organoids [2]; dose 0.40 uM): 0.117; Dose.FC.LYZ.S (log 2 fold change, carbachol-induced lysozyme secretion) (ISC-enriched organoids [2]; dose 2.00 uM): −0.008; Z.CTG (standard z score) (ISC-enriched organoids [3]; dose 0.08 uM): 0.199; Dose.FC.CTG (log 2 fold change, ATP) (ISC-enriched organoids [3]; dose 0.08 uM): 0.083; Z.CTG (standard z score) (ISC-enriched organoids [3]; dose 0.40 uM): −0.073; Dose.FC.CTG (log 2 fold change, ATP) (ISC-enriched organoids [3]; dose 0.40 uM): −0.031; Z.CTG (standard z score) (ISC-enriched organoids [3]; dose 2.00 uM): 0.477; Dose.FC.CTG (log 2 fold change, ATP) (ISC-enriched organoids [3]; dose 2.00 uM): 0.200
COc1cccc2c1C(=O)c1c(O)c3c(c(O)c1C2=O)C[C@@](O)(C(C)=O)C[C@@H]3O[C@H]1C[C@H](N)[C@H](O)[C@H](C)O1 [Daunorubicin HCl] |  |  |  |  |  |  |  |  |  |  |  |  |  |  |  |  |  |  |  |  | Dose.FC.LYZ.NS (ISC-enriched organoids [1]; Dose 0.08 uM): −0.136 log 2 fold change; Z.LYZ.NS (ISC-enriched organoids [1]; Dose 0.08 uM): −1.188; Dose.FC.LYZ.NS (ISC-enriched organoids [1]; Dose 0.40 uM): −0.241 log 2 fold change; Z.LYZ.NS (ISC-enriched organoids [1]; Dose 0.40 uM): −2.099; Dose.FC.LYZ.NS (ISC-enriched organoids [1]; Dose 2.00 uM): −0.262 log 2 fold change; Z.LYZ.NS (ISC-enriched organoids [1]; Dose 2.00 uM): −2.280; Dose.FC.LYZ.NS (ISC-enriched organoids [1]; Dose 10.00 uM): −0.260 log 2 fold change; Z.LYZ.NS (ISC-enriched organoids [1]; Dose 10.00 uM): −2.262; Dose.FC.LYZ.S (ISC-enriched organoids [2]; Dose 0.08 uM): −0.096 log 2 fold change; Dose.FC.LYZ.S (ISC-enriched organoids [2]; Dose 0.40 uM): −0.329 log 2 fold change; Dose.FC.LYZ.S (ISC-enriched organoids [2]; Dose 2.00 uM): −0.343 log 2 fold change; Dose.FC.LYZ.S (ISC-enriched organoids [2]; Dose 10.00 uM): −0.374 log 2 fold change; Dose.FC.CTG (ISC-enriched organoids [3]; Dose 0.08 uM): −0.467 log 2 fold change; Z.CTG (ISC-enriched organoids [3]; Dose 0.08 uM): −1.115; Dose.FC.CTG (ISC-enriched organoids [3]; Dose 0.40 uM): −0.601 log 2 fold change; Z.CTG (ISC-enriched organoids [3]; Dose 0.40 uM): −1.436; Dose.FC.CTG (ISC-enriched organoids [3]; Dose 2.00 uM): −0.817 log 2 fold change; Z.CTG (ISC-enriched organoids [3]; Dose 2.00 uM): −1.950; Dose.FC.CTG (ISC-enriched organoids [3]; Dose 10.00 uM): −1.100 log 2 fold change; Z.CTG (ISC-enriched organoids [3]; Dose 10.00 uM): −2.628
CO[C@H]1C[C@@H]2CC[C@@H](C)[C@@](O)(O2)C(=O)C(=O)N2CCCC[C@H]2C(=O)O[C@H]([C@H](C)C[C@@H]2CC[C@@H](OC(=O)C(C)(CO)CO)[C@H](OC)C2)CC(=O)[C@H](C)/C=C(\C)[C@@H](O)[C@@H](OC)C(=O)[C@H](C)C[C@H](C)/C=C/C=C/C=C/1C [Temsirolimus (CCI-779, NSC 683864)] | 0.790 | 0.091 | 0.763 | 0.088 | 1.494 | 0.172 | 0.082 | 0.152 | 0.132 | 1.228 | 0.514 | 1.393 | 0.583 | 1.382 | 0.578 | 1.035 | 0.119 | 0.153 | 0.478 | 0.200 | 
